According to patent US11613538B2, “Method of inhibiting or reducing a viral infection” (PTC Therapeutics, Inc., priority 2009, dated 2023):
Like-named read-outs stand apart in the source and are kept apart here.

How the values were obtained:
[1] = Caki-1 xenograft study: body weight and clinical observations; format: in vivo, mice; conditions: Caki-1 study
From the text: Body Weight: The mice were weighed once per week.

[2] = 786-O xenograft study: body weight and clinical observations; conditions: 786-O study, in words
Dengue 2 = Dengue 2 CPE protection assay in Vero E6 cells; format: cell-based, dengue virus
Vero cells = conditions: monkey
Caki-1 cells = assay: Caki-1 renal cell carcinoma xenograft (VHL-positive), tumor volume; format: in vivo, mice; conditions: for Tumor size (mean±SD): PO
Protocol: The Caki-1 cell line expresses the von Hippel-Lindau (VHL) protein which acts as a tumor suppressor by promoting the rapid degradation of HIF-1α (hypoxia-inducible factor 1α) under normoxia. Under hypoxic conditions, HIF-1α is stabilized and activated by the inability of VHL to act resulting in increased transcription of VEGF that is responsible for the high vascularization of RCC (see Turcotte et al, 2003, Zimmer et al, 2004).
A total of 100 mice were injected, of which 60 were used in the study.
Groups were taken off study when the mean tumor volume in a group was 1300 mm^3 or more. Vehicle-treatment started on Day 0 and continued through Day 35. Compound #10-treatment started on Day 0 and continued through Day 52.
Tumors were measured twice per week using digital calipers.
[…] The median values were reported.

Adenovirus = Adenovirus CPE protection assay in HeLa cells; format: cell-based
RSV = RSV CPE protection assay in Vero cells; format: cell-based, respiratory syncytial virus
HCV genotype 2a replicon = assay: HCV subgenomic replicon assay, genotype 2a; format: cell-based; conditions: Hepatitis C virus
MDCK cells = conditions: dog
HCV genotype 1b replicon = assay: HCV subgenomic replicon assay, genotype 1b; format: cell-based; conditions: Hepatitis C virus
WNV = WNV CPE protection assay in Vero cells (MTS); format: cell-based, West Nile virus
Protocol: Antiviral activity of a Compound against WNV is tested in Vero cells by protection of virus induced cytopathic effects (i.e. cytoprotection measured as cell viability, IC50). The effect of a Compound on inhibition of virus induced cytopathic effects is determined using MTS (CellTiter) assay.

HSV-1 = HSV-1 CPE protection assay in Vero cells; format: cell-based, herpes simplex virus-1
PV strain Mahoney = assay: microbe, parasite or virus in culture; format: cell-based, poliovirus
MT-2 cells = assay: CC50 in MT-2 cells (antiviral assay panel); format: cell-based, human; conditions: HIV-1 assay line
HeLa cells = conditions: human
[3] = tested on: c-Myc expression in 786-O cells; assay: Western blot of protein expression in 786-O Renal Cancer Cell line (FIG. 7A); format: cell-based; conditions: different dose levels (1 μM and 10 μM), in words
From the text: The Vinculin, c-Myc, Survivin, ornithine decarboxylase (ODC), Cyclin D and pS6 mRNA are cap-dependent mRNAs that are considered difficult to translate. The blots for each mRNA shown were translated via a cap-independent manner with mTOR inhibition (Akt has been inactivated).

[4] = Whole-body autoradiography: brain tissue plasma concentration ratios (blood-brain barrier penetration); format: in vivo, rats; conditions: in words
Influenza A = assay: microbe, parasite or virus in culture; format: cell-based, influenza virus
HIV-1 = HIV-1 CPE protection assay in MT-2 cells; format: cell-based
Protocol: Antiviral activity against HIV-1 is determined in a human cell line. […] The activity against HIV may also be tested in human peripheral blood mononuclear cells in cell culture.

Yellow Fever = assay: microbe, parasite or virus in culture; format: cell-based, yellow fever virus
cancer in patients = assay: Treatment of individual cancer patients (clinical parameters and tumor markers); format: in vivo, human; conditions: monotherapy, in words
Protocol: The arrow symbol represents the timepoint at which docetaxel was reduced to 60 mg/m2.

[5] = tested on: protein expression in RCC lines 786-0, 769-P and A498; assay: Western blot of protein expression in panel of RCC lines (786-0, 769-P and A498) (FIG. 8); format: cell-based; conditions: monotherapy at different μM dose levels; in words
[6] = human respiratory syncytial virus, Vero

COc1ccc([C@H]2c3[nH]c4ccc(Cl)cc4c3CCN2C(=O)Oc2ccc(Cl)cc2)cc1 (racemic) [Compound #10]
Body weight loss from Day 0 ([1]; Day 8 and Day 14): 2.2%
Survival of treated mice ([1]; all mice, in words): survived until sacrificed
Body weight change from initial body weight ([1]; in words): transiently lost weight
Survival of treated mice ([2]; all mice): survived until sacrificed
Body weight change from initial body weight [2]: did not lose weight
IC50 (Dengue 2; Dengue virus, Vero C1008, Dengue 2, (+) RNA, Vero E6, CPE protection): > 1000 nM
IC90 (Dengue 2; Dengue virus, Vero C1008, Dengue 2, Vero E6, CPE protection): > 1000 nM
Activity against dengue (Dengue 2; at the doses tested, in words): inactive
CC50 (Vero cells): > 1000 nM
Median time to reach 1500 mm^3 (Caki-1 cells): 39 days
Median time for tumors to reach 1000 mm^3 (Caki-1 cells; Compound #10 10 mg/kg QD PO, sunitinib 75 mg/kg QD PO, rapamycin 15 mg/kg PO): 39 days
Tumor size (mean±SD) (Caki-1 cells; Day 35, 10 mg/kg QD): 866±450 mm^3
Tumors smaller than those in vehicle-treated mice (Caki-1 cells; Day 35, Compound #10 10 mg/kg QD PO, sunitinib 75 mg/kg QD PO, rapamycin 15 mg/kg PO): 44%
Tumor size (mean±SD) (Caki-1 cells; Day 52, 10 mg/kg QD): 1538±1070 mm^3
Inhibition of adenovirus (Adenovirus; at the doses tested, in words): did not inhibit
IC50 (Adenovirus; unidentified adenovirus, Adenovirus, DNA, HeLa, CPE protection): > 1000 nM
IC90 (Adenovirus; unidentified adenovirus, Adenovirus, HeLa, CPE protection): > 1000 nM
IC50 (RSV; [6]): 250 nM
IC90 (RSV; [6]): ≥ 160 nM
Activity against respiratory syncytial virus (RSV) (RSV; in words): potent activity
IC50 (HCV genotype 2a replicon): < 3 nM
CC50 (MDCK cells): > 1000 nM
IC50 (HCV genotype 1b replicon): 1 nM
IC50 (HCV genotype 1b replicon; read-out: average IC50): 36 nM
IC50 (WNV; West Nile virus, WNV, (+) RNA, Vero, CPE protection): 67 nM
IC90 (WNV; West Nile virus, WNV, Vero, CPE protection): 280 nM
Activity against West Nile virus (WNV) (WNV; in words): potent activity
IC50 (HSV-1; Human alphaherpesvirus 1, HSV-1, DNA, Vero, CPE protection): > 1000 nM
IC90 (HSV-1; Human alphaherpesvirus 1, HSV-1, Vero, CPE protection): > 1000 nM
Inhibition of herpes simplex virus-1 (HSV-1) (HSV-1; at the doses tested, in words): did not inhibit
IC50 (PV strain Mahoney; Enterovirus C, HeLa): 0.57 nM
IC90 (PV strain Mahoney; Enterovirus C, HeLa): 2.8 nM
IC50 (PV strain Mahoney; Enterovirus C, HeLa, read-out: average IC50): 0.6 nM
decrease in activity when added at the time of infection (PV strain Mahoney; infected HeLa cells): 65 fold
CC50 (MT-2 cells): 4.1 nM
CC50 (Vero E6 cells; Dengue 2 assay line): 700 nM
CC50 (Vero E6 cells; Vaccinia assay line): 83 nM
CC50 (HeLa cells): > 1000 nM
Suppression of c-Myc expression (FIG. 7A) [3]: not completely effective in suppressing c-Myc expression
Blood-brain barrier penetration [4]: penetrates the blood-brain barrier
Inhibition of influenza virus (Influenza A): did not exhibit any selective inhibition
IC50 (Influenza A; Influenza A virus, MDCK): > 1000 nM
IC90 (Influenza A; Influenza A virus, MDCK): > 1000 nM
IC50 (HIV-1; Human immunodeficiency virus 1, MT2): 22 nM
EC50 (HIV-1; Human immunodeficiency virus 1, MT2, 72 h, human cell line, 3 days post-infection, normalized to cell number after treatment in the absence of infection, read-out: EC50, prevention of cytopathic effect): 22 nM
IC50 (Yellow Fever; Yellow fever virus, HeLa): > 1000 nM
IC90 (Yellow Fever; Yellow fever virus, HeLa): > 1000 nM
Activity against yellow fever (Yellow Fever; at the doses tested, in words): inactive
Clinical outcome (FIG. 22) (cancer in patients; patient having cholangiocarcinoma, after four previous therapeutic modalities): stabilization for a tumor marker
Clinical outcome (FIG. 21) (cancer in patients; patient having chondrosarcoma, after one previous therapeutic modality): stabilization and reduction in a number of clinical parameters and tumor markers
Clinical outcome (FIG. 20) (cancer in patients; patient having melanoma, after two previous therapeutic modalities): stabilization and reduction in a number of clinical parameters and tumor markers
Clinical outcome (FIG. 19) (cancer in patients; patient having thyroid cancer, after three previous therapeutic modalities): stabilization and reduction in a number of clinical parameters and tumor markers
Effect on protein expression (FIG. 8) [5]: dose-dependent and depended on the RCC line used
